For assay [1], the target named is Serine/threonine-protein phosphatase PP1-alpha catalytic subunit (Homo sapiens, UniProt P62136). Kind of assay: PP1 phosphatase inhibitors, dose response, biochemical, fluorescence (AID 2394).
The target of assay [2] is Serine/threonine-protein phosphatase (Homo sapiens, UniProt Q9BPW0). Kind of assay: PP5 phosphatase inhibitors, dose response, biochemical, fluorescence (AID 2395).
Assay [3] can be described thus: Luminescence Cell-Based Dose Confirmation HTS to Identify Inhibitors of Polyadenylation. Type of assay: functional.
Assay [4] in a line: NIH-3T3 fibroblast cytotoxicity, dose response, cytotoxicity control, cell-based, fluorescence, Alamar Blue, secondary assay (AID 2327).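 Also: NIH-3T3 mouse fibroblasts cultured with fluconazole at 8 µg/mL.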 Format: functional.
Assay [5] concerns the target T1, Bcl-2-related protein A1 (Mus musculus, UniProt Q07440).
T1 sequence (Q07440 whole entry): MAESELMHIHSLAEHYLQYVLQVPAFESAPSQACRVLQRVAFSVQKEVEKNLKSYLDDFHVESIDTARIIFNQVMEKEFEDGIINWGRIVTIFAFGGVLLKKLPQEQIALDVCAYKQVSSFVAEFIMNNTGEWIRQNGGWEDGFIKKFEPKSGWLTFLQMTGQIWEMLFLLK
Kind of assay: Bfl-1 inhibitors, primary screen, biochemical, fluorescence polarization, FITC-Bid, mouse (AID 432). A general note: Polarisation of emitted light reports the rotation of a fluorescent probe.

Assay [6] has as its target Glyceraldehyde-3-phosphate dehydrogenase (Homo sapiens, UniProt P04406).
A short description of assay [7]: C. albicans growth with fluconazole, confirmation, fluorescence, retest (AID 2467). Format: functional, cell-based.
For assay [8], the target named is G-protein coupled receptor 55 (Homo sapiens, UniProt Q9Y2T6). Kind of assay: GPR55 antagonists blocking LPI-driven arrestin recruitment, primary screen, imaging, U2OS, beta-arrestin-GFP, LPI agonist (AID 2013).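 Also: antagonist potency measured as reduced agonist-driven arrestin aggregation.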 Type of assay: functional. For orientation: Arrestin recruitment assays detect the binding of arrestin to an activated receptor.
G-protein coupled receptor 55, sequence (Q9Y2T6 whole entry): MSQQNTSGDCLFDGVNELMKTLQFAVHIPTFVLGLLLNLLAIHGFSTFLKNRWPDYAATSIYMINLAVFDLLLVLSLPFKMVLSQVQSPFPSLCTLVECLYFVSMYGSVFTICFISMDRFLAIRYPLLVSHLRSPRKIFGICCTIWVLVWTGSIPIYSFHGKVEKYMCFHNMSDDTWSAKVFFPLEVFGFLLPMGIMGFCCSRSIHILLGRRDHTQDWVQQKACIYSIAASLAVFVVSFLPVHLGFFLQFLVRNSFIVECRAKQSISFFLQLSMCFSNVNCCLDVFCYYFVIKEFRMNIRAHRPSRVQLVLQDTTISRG
Assay [9] can be described thus: cytotoxicity in HPDE-C7 cells, cell-based, fluorescence, HTS (AID 430). Type of assay: functional. The conditions noted are these: Homo sapiens.
In assay [10] the target is T1, Bcl-2-related protein A1. Kind of assay: Bfl-1 inhibitors blocking BH3 peptide binding, confirmation, biochemical, TR-FRET, mouse Bfl-1 (AID 621).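 Also: TR-FRET binding of GST-Bfl-1 to FITC-labelled Bid peptide via terbium antibody.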 In general terms: In TR-FRET formats the signal depends on donor and acceptor labels being close together.
The nature of assay [11]: cytotoxicity in KRAS-transformed pancreatic duct cells, primary screen, cell-based, fluorescence, HTS (AID 431).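 Also: cell line used: HPDE-C7K.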 Type of assay: functional. The conditions noted are these: Homo sapiens.
The target in assay [12] is T1, Bcl-2-related protein A1. The assay can be described thus: Bfl-1 binding inhibitors, SAR follow-up, biochemical, fluorescence polarization (AID 1070).
Assay [13] addresses T2, Nucleotide-binding oligomerization domain-containing protein 1 (Homo sapiens, UniProt Q9Y239).
T2 sequence (Q9Y239 whole entry): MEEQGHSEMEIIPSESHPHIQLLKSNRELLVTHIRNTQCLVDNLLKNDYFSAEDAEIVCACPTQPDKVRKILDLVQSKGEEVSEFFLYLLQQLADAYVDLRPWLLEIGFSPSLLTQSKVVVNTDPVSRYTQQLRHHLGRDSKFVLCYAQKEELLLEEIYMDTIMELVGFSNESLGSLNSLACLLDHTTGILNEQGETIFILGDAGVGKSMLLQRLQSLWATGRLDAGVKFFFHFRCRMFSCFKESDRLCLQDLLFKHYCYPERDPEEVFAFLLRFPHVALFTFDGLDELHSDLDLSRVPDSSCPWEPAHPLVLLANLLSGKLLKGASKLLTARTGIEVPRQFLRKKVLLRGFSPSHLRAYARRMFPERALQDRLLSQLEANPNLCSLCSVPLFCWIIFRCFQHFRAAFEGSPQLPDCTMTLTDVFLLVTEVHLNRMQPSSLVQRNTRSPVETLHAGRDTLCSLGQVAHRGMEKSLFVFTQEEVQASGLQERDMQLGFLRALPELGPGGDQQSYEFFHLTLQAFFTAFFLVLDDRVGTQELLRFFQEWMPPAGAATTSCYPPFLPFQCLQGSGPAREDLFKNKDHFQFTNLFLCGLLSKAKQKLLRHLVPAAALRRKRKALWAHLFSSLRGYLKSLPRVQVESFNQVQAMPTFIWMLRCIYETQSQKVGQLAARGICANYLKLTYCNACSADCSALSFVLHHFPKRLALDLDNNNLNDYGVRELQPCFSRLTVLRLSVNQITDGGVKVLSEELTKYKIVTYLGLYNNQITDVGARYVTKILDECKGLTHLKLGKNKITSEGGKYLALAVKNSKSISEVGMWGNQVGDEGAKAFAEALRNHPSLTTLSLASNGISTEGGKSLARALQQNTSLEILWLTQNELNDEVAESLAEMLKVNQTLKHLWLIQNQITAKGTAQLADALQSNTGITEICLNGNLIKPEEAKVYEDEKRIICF
Kind of assay: SAR analysis of compounds that inhibit NOD1 - Set 3. [Related pubchem assays (depositor defined):AID1566, AID1575, AID1578, AID1849, AID1852, AID2333, AID2335, AID2466]. Type of assay: functional.

The next assay concerns the target Beta-galactosidase (Escherichia coli, UniProt Q8VNN2). The assay can be described thus: beta-galactosidase enzyme inhibitors and activators, dose response, artefact control for CCR6 antagonist project, biochemical, E. coli enzyme, set 3 (AID 504712). Type of assay: functional.
The next assay deals with Tumor necrosis factor (Homo sapiens, UniProt P01375). Kind of assay: TNFa-triggered NF-kB activation inhibitors, SAR follow-up, cell-based, set 3 (AID 2801). Type of assay: functional.
Tumor necrosis factor, sequence (P01375 whole entry): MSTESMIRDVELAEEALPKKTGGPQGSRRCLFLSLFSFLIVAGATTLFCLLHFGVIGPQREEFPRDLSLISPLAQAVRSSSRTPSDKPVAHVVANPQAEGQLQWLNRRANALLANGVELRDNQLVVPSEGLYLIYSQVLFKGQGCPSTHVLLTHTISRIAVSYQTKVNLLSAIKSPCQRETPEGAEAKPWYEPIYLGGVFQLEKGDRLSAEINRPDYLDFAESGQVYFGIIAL
For another assay, the system named is HEK293. Kind of assay: SAR analysis of compounds that are cytotoxic to HEK293 - Set 3. [Related pubchem assays (depositor defined):AID1575, AID1578, AID1848, AID1849, AID2001, AID2333, AID2334, AID2335, AID2337, AID2469]. Type of assay: functional, cell-based. The conditions noted are these: Homo sapiens.
Assay [14] addresses Nucleotide-binding oligomerization domain-containing protein 2 (Homo sapiens, UniProt Q9HC29). Kind of assay: NOD2 signaling inhibitors, analog potency, SAR follow-up, cell-based, set 3 (AID 2799). Format: functional.
The nature of assay [15]: Shn3 3'UTR reporter inhibitors, dose response, cell-based, Clone20 osteoblasts, firefly luciferase, cherry-picked (AID 624132).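 Also: firefly luciferase luminescence from reporter carrying the Shn3 3'UTR in osteoblasts.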 Format: functional.
Assay [16] in a line: HepG2 cell cytotoxicity, dose response, cytotoxicity control for Shn3 inhibitor project, CellTiter-Glo, cherry-picked (AID 624134). Type of assay: functional, cell-based.
Assay [17] is described as follows: control 3'UTR Renilla luciferase suppression, dose response, counter-screen for Shn3 inhibitor project, cell-based, Clone20-Shn3RL, cherry-picked (AID 624133). Format: functional.
Assay [18] can be described thus: Fluorescence-based cell-based high throughput dose response assay for inhibitors of the interaction of nucleotide-binding oligomerization domain containing 2 (NOD2) and the receptor-interacting serine-threonine kinase 2 (RIPK2). Type of assay: functional, Homo sapiens. The conditions noted are these: Homo sapiens.
The target in assay [19] is T3, Hepatocyte nuclear factor 4-alpha (Homo sapiens, UniProt P41235).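 Also: biochemical luminescence-based dose-response counterscreen measuring inhibition of HNF4 dimerization, run alongside a screen for blockers of ABHD5–perilipin-5 interaction; split luciferase complementation of HNF4 fusion proteins in cell lysate measuring dimerization.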
T3 sequence (P41235 whole entry): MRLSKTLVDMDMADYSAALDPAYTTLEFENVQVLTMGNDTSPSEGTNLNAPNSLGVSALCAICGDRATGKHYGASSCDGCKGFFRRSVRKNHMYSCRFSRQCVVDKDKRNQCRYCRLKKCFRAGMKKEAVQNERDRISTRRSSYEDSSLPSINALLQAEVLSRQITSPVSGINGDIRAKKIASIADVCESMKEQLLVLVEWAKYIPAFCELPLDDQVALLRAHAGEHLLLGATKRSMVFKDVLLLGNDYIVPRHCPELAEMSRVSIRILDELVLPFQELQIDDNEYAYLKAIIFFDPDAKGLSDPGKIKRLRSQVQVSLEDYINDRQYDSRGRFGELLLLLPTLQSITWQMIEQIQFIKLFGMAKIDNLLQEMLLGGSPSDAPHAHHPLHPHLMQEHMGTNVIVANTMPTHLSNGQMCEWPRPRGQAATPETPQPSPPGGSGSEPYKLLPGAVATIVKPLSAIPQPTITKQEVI
Type of assay: functional, cell-based.

The target in the next assay is Beta Lactamase (Pseudomonas aeruginosa, UniProt Q932Y6). Kind of assay: beta-lactamase reporter inhibitor potency, dose response, artefact control for NOD2-RIPK2 interaction inhibitor project, BLA reporter cells, FRET fluorescence (AID 651552). Type of assay: functional, cell-based.
Beta Lactamase, sequence (Q932Y6 whole entry): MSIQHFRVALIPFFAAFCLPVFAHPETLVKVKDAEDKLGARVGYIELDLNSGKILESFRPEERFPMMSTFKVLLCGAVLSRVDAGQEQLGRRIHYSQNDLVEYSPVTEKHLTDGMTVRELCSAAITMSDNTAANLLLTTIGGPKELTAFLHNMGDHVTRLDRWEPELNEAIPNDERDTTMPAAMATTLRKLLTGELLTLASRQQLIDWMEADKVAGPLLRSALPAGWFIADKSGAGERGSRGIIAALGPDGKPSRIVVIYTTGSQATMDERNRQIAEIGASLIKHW
Assay [20] can be described thus: HEK293T cell cytotoxicity, dose response, cytotoxicity control for HIV Vif inhibitor project, cherry-picks (AID 652208). Type of assay: functional, cell-based.
Assay [21] is described as follows: inhibitors of PGC1a acetylation in cells, dose response, cell-based, cherry-picked samples (AID 720514).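 Also: potency may reflect raised or lowered acetylation signal.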 Format: functional.
Assay [22] has as its target Protein-tyrosine kinase 2-beta (Homo sapiens, UniProt Q14289).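 Also: potency of inhibitors of PYK2 kinase phosphorylation of poly-GT substrate.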

Where “and” joins values, the source holds several entries; their conditions need not be identical. Equal values may be shown once. Calls of active or inactive are those of the source.

Nucleotide-binding oligomerization domain-containing protein 2, sequence (Q9HC29 whole entry, the tested form may be a part): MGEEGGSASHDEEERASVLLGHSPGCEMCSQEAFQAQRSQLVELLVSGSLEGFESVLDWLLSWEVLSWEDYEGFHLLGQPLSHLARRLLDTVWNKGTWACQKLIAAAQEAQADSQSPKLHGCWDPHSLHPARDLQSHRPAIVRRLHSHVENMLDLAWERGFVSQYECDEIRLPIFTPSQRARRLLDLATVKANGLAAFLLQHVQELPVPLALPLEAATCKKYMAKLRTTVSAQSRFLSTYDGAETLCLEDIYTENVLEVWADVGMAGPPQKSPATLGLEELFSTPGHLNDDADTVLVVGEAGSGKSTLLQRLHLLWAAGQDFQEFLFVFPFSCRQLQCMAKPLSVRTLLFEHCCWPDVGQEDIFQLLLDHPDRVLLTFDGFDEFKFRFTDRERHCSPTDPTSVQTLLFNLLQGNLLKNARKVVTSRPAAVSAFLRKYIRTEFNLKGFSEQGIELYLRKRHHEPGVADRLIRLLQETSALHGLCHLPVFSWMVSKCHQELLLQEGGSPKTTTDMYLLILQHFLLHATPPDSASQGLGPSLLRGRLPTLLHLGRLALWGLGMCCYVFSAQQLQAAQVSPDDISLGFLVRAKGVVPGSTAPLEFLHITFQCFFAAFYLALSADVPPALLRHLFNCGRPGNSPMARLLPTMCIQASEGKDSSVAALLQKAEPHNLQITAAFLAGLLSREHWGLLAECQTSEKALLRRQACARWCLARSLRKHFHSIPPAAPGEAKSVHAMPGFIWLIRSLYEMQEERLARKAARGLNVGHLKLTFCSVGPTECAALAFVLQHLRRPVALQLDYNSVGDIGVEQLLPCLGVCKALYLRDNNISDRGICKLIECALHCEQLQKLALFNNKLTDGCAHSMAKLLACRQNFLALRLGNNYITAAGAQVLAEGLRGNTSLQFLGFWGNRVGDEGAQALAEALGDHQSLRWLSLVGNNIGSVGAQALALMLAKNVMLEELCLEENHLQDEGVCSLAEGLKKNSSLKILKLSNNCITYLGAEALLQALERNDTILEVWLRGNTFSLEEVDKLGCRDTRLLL
Serine/threonine-protein phosphatase, sequence (Q9BPW0 whole entry): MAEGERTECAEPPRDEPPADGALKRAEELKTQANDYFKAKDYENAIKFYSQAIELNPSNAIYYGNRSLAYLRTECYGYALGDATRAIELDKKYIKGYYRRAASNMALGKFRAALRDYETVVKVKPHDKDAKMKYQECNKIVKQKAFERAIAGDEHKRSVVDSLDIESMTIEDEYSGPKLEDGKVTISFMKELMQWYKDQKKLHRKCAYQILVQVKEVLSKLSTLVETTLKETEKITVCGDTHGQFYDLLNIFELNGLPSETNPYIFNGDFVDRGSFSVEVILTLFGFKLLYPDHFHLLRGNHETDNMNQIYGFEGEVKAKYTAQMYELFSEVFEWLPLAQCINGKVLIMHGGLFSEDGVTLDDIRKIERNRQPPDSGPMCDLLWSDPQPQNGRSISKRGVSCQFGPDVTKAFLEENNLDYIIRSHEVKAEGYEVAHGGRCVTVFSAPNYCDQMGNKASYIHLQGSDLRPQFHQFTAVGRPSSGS
Protein-tyrosine kinase 2-beta, sequence (Q14289 whole entry): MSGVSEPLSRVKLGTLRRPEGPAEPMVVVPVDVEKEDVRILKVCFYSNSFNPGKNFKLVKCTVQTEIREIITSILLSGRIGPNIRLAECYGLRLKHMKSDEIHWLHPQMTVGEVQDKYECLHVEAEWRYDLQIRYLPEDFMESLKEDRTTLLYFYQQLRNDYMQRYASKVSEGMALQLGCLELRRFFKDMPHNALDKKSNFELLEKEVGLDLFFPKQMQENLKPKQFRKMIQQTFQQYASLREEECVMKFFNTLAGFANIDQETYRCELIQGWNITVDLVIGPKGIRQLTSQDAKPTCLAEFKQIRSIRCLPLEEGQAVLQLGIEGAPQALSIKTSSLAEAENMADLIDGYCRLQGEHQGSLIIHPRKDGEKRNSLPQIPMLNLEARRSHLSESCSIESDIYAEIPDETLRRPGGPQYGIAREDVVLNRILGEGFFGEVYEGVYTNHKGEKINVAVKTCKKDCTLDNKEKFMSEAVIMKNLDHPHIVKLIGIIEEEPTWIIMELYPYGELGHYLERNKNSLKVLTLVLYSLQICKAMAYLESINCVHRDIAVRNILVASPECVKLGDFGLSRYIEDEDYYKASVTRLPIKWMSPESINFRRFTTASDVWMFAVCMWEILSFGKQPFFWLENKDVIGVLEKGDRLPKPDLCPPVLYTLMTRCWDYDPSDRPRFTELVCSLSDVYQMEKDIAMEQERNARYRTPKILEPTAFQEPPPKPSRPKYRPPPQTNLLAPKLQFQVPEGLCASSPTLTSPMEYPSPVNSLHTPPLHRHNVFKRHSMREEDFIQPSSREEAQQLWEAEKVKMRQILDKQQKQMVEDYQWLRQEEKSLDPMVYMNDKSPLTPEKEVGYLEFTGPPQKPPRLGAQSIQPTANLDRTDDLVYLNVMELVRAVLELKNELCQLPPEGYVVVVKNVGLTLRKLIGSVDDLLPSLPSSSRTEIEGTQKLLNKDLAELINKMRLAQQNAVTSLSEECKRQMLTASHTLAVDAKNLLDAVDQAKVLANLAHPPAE
Glyceraldehyde-3-phosphate dehydrogenase, sequence (P04406 whole entry): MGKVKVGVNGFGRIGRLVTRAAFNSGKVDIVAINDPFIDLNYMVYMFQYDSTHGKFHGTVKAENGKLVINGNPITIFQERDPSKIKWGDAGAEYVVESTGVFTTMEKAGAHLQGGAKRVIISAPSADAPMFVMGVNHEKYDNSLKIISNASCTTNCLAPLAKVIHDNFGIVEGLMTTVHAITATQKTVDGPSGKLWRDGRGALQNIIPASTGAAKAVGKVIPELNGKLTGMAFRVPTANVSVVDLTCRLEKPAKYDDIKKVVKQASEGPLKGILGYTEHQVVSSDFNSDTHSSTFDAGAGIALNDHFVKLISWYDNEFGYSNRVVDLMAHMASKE
Beta-galactosidase, sequence (Q8VNN2 whole entry): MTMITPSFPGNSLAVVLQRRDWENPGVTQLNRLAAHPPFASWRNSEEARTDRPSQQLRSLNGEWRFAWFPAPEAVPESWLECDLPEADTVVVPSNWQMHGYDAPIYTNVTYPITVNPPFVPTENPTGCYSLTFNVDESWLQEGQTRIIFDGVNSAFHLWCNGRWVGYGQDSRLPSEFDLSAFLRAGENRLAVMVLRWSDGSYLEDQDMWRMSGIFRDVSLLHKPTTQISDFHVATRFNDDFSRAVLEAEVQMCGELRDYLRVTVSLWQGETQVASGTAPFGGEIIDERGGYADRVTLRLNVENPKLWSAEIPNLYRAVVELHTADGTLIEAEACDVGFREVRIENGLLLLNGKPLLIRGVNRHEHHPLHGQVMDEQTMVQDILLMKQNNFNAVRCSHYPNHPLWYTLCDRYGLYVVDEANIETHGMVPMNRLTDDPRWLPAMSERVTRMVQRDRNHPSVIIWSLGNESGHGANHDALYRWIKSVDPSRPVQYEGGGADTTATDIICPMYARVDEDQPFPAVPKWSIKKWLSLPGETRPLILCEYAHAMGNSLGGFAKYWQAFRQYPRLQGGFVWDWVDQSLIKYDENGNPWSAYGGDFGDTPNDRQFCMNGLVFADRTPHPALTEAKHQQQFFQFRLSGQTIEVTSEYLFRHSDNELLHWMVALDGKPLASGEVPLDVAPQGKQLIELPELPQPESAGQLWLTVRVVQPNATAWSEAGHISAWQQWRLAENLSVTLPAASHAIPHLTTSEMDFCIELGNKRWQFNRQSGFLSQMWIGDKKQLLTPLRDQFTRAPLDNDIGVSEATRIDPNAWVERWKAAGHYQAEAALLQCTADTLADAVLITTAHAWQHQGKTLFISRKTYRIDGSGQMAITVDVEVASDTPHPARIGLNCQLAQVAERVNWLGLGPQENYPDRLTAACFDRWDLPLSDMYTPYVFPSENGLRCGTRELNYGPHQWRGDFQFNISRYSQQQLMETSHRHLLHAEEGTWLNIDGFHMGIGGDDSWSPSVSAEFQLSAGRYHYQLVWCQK

A word on the IC50: it is the concentration needed to halve the response being measured. In the case of `O=C(O)c1[nH]nnc1-c1ccccc1`, the IC50 in assay [1] is on record as > 67 µM (not active); in assay [2], 13 µM (not active).

As usually defined, the EC50 is the concentration that produces a half-maximal response. `CS(=O)(=O)N1CCN(CC2CC3C=CC2C3)CC1` (stereo unspecified): the 50% effective concentration (EC50) in assay [3] was > 120 µM (not active).

For orientation: AC50 means the concentration giving half of the maximal activity seen. Turning to `COc1ccc(-c2cc(N)n(S(=O)(=O)c3c(F)c(F)c(F)c(F)c3F)n2)cc1OC`, the 50% effective concentration (EC50) in assay [4] was 5.96 µM (inconclusive); in assay [7], 3.9 µM (active); in assay [9], 2.82 µM (active); in assay [11] it was 2.15 µM (active). The half-maximal inhibitory concentration (IC50) is 5.82 µM (active) at Bcl-2-related protein A1 [5]; > 100 µM (not active) in assay [6]; 1.18 µM (active) in assay [8]; 4.33 µM (active) and 4.96 µM (active) at Bcl-2-related protein A1 [10]; 5.39 µM (active) at Bcl-2-related protein A1 [12]; 16.2 µM (active) in assay [13]. In addition, the IC50 on Beta-galactosidase is > 66.6 µM (inactive); at Tumor necrosis factor, 10.3 µM (active); in the assay on HEK293 it was > 20 µM (inactive); in assay [14] it was 16.4 µM (active); in assay [18], 0.951 µM (active); in assay [19], 6.26 µM (active). Further, at Beta Lactamase, the IC50 is 34.3 µM (inactive). Besides, the half-maximal activity concentration (AC50) was 0.896 µM (active) in assay [15]; 20.2 µM (active) in assay [16]; 4.25 µM (active) in assay [17]; 3.69 µM (active) in assay [20]; 8.51 µM (active) in assay [21].

Take `COC(=O)Cc1ccc2c3ccccc3n(C)c2c1`: the half-maximal inhibitory concentration (IC50) in [22] is recorded as > 69.5 µM (not active).

The values are drawn from ChEMBL document CHEMBL1201862, “PubChem BioAssay data set” (2004).
